Tested on: UBCLP expression in LNCaP cells
Assay: Expression of UBCLP in LNCaP prostate cancer cells treated with casodex or R1881
Type: cell-based, human
Conditions: 100 nM casodex versus 1 nM R1881, RPMI-1640 with 5% charcoal stripped serum, mRNA expression analysis
Description: In order to examine the effect of casodex, an anti-androgen, on the expression of UBCLP, LNCaP cells (androgen-responsive prostate cancer cells) were grown to 70% confluence in RPMI-1640 supplemented with 10% FBS. The cultures were then pretreated for 24 hours in dye-free RPMI-1640 containing 5% charcoal stripped serum. The cultures were then treated with either 1 nM R1881 or 100 nM casodex in RPMI-1640 containing 5% charcoal stripped serum prior to harvesting an extraction of total mRNA for expression analysis.
In CWR22 cells (a human primary prostate xenograft cell line; Wainstein et al. (1994) Cancer Res. 54:6059-52) implanted in male nude mice, UBCLP expression levels decrease about 5-fold in 21 days after castration. In CWR22R cells (Chen et al. (1998) Cancer Res 58:2777-83), an androgen-independent variant of CWR22 cells, UBCLP appears to be constitutively expressed with respect to androgen.

Which “drop in UBCLP expression” value does the source give for CC(O)(CS(=O)(=O)c1ccc(F)cc1)C(=O)Nc1ccc(C#N)c(C(F)(F)F)c1 (stereo not shown) [Casodex] here?
Its value is 3 fold.
